In patent US11300570B2, “Therapeutic and diagnostic methods for cancer” (Genentech, Inc., priority 2016, dated 2022):

Experiments:
[1] = test system: locally advanced or metastatic NSCLC (PD-L1-unselected patients); assay: POPLAR Phase II randomized trial, atezolizumab vs docetaxel, in 2L+ PD-L1-unselected NSCLC, efficacy by tTMB; format: in vivo, human
Text: (§1) Patients were eligible for enrollment in the POPLAR study if they had locally advanced or metastatic (e.g., stage IIIB, stage IV, or recurrent) NSCLC; disease progression during or following treatment with a prior platinum-containing regimen for locally advanced, unresectable/inoperable, or metastatic NSCLC, or disease recurrence within 6 months of treatment with a platinum-based adjuvant/neoadjuvant regimen; measurable disease, as defined by RECIST v1.1; and an ECOG performance status of 0 or 1. Participants were randomized to receive either atezolizumab at a dose of 1200 mg intravenously every three weeks or docetaxel 75 mg per meter square (mg/m^2) intravenously every three weeks. Treatment with atezolizumab could be continued as long as participants were experiencing clinical benefit, i.e., in the absence of unacceptable toxicity or symptomatic deterioration attributed to disease progression. Pre-treatment tumor samples from patients in the Phase III OAK trial (Clinical Trial ID No.: NCT02008227) were also evaluated for tTMB. Patients were eligible for enrollment in the OAK study if they had locally advanced or metastatic (e.g., stage IIIB, stage IV, or recurrent) NSCLC; disease progression during or following treatment with a prior platinum-containing regimen for locally advanced, unresectable/inoperable, or metastatic NSCLC, or disease recurrence within 6 months of treatment with a platinum-based adjuvant/neoadjuvant regimen; measurable disease, as defined by RECIST v1.1; and an ECOG performance status of 0 or 1. Participants were randomized to receive either atezolizumab at a dose of 1200 mg intravenously every three weeks or docetaxel 75 mg per square meter (mg/m^2) intravenously every three weeks. Treatment with atezolizumab could be continued as long as participants were experiencing clinical benefit, i.e., in the absence of unacceptable toxicity or symptomatic deterioration attributed to disease progression.
Data from the single-arm, PD-L1-selected trials BIRCH and FIR were combined and analyzed to examine the association between tTMB and clinical outcomes among PD-L1-selected patients. Data from the randomized, PD-L1-unselected trial, POPLAR, were analyzed separately and treatment effects between the atezolizumab- and docetaxel-treatment arms were compared.
To identify somatic mutations, tumor samples (e.g., archival tumor samples) were processed as described in Frampton et al. Nat. Biotechnol. 31:1023-31, 2013. Sequencing libraries were constructed to sequence and analyze samples. In addition to standard mutation processing, a mutation load estimation algorithm was applied that, based on the number of somatic mutations and/or rearrangements detected in Table 1 or Table 2, respectively, extrapolates to the exome or the genome as a whole. For purposes of mutation load estimation, all coding short variant alterations, base substitutions, and indels detected in the genes listed in Table 1 and Table 2 were counted. Further, all coding alterations (base substitutions and indels), including synonymous alterations, with the exception of known oncogenic driver mutations, in the genes listed in Table 1 and Table 2 were counted. However, numerous classes of detected alterations were not counted: non-coding alterations; alterations with known (occurring as known somatic alterations in the COSMIC database (Forbes et al. (2014) Nucl. Acids Res. 43:D805-11) and likely (truncations in tumor suppressor genes) functional status; known germline alterations in the dbSNP database (Sherry et al. (2001) Nucleic Acids Res. 29(1):308-11); germline alterations occurring with two or more counts in the ExAC database (Exome Aggregation Consortium (ExAC), Cambridge, Mass.); alterations that are predicted to be germline in the specimen being assessed; and alterations that are predicted to be germline in a cohort of >60,000 clinical specimens. […]

[2] = test system: locally advanced or metastatic NSCLC; assay: OAK Phase III randomized trial, atezolizumab vs docetaxel, in 2L+ NSCLC, efficacy by tTMB; format: in vivo, human; details: 2L+ OAK
Text: as §1
To identify somatic mutations, tumor samples (e.g., archival tumor samples) were processed as described in Frampton et al. Nat. Biotechnol. 31:1023-31, 2013. Sequencing libraries were constructed to sequence and analyze samples. In addition to standard mutation processing, a mutation load estimation algorithm was applied that, based on the number of somatic mutations and/or rearrangements detected in Table 1 or Table 2, respectively, extrapolates to the exome or the genome as a whole. For purposes of mutation load estimation, all coding short variant alterations, base substitutions, and indels detected in the genes listed in Table 1 and Table 2 were counted. Further, all coding alterations (base substitutions and indels), including synonymous alterations, with the exception of known oncogenic driver mutations, in the genes listed in Table 1 and Table 2 were counted. However, numerous classes of detected alterations were not counted: non-coding alterations; alterations with known (occurring as known somatic alterations in the COSMIC database (Forbes et al. (2014) Nucl. Acids Res. 43:D805-11) and likely (truncations in tumor suppressor genes) functional status; known germline alterations in the dbSNP database (Sherry et al. (2001) Nucleic Acids Res. 29(1):308-11); germline alterations occurring with two or more counts in the ExAC database (Exome Aggregation Consortium (ExAC), Cambridge, Mass.); alterations that are predicted to be germline in the specimen being assessed; and alterations that are predicted to be germline in a cohort of >60,000 clinical specimens. Finally, to calculate the mutation load per megabase, the total number of mutations counted was divided by the coding region target territory of the test, which was 1.110 megabases (Mb) for the current version of the test. The average median coverage value for all samples was 490.
The BEP was defined as patients with at least one tTMB measurement from a baseline tumor sample. […]

[3] = BEP (evaluable for TMB) (n = 174 atezolizumab, 186 docetaxel)
[4] = tTMB score <9 mut/Mb (n = 91 atezolizumab, 87 docetaxel)
[5] = tTMB score <16 mut/Mb (n = 135 atezolizumab, 136 docetaxel)
[6] = tTMB score ≥9 mut/Mb (n = 83 atezolizumab, 99 docetaxel)
[7] = tTMB score ≥16 mut/Mb (n = 39 atezolizumab, 50 docetaxel)

## CC(=O)O[C@@]12CO[C@@H]1C[C@H](O)[C@@]1(C)C(=O)[C@H](O)C3=C(C)[C@@H](OC(=O)[C@H](O)[C@@H](NC(=O)OC(C)(C)C)c4ccccc4)C[C@@](O)([C@@H](OC(=O)c4ccccc4)[C@H]21)C3(C)C [docetaxel]
[1]; POPLAR, per treatment arm
  ORR (confirmed per RECIST v1.1) with increasing tTMB: did not experience improvement in ORR
[1]; POPLAR, BEP (n = 54 atezolizumab vs 38 docetaxel)
  ORR: 15%
[1]; POPLAR, ITT (n = 144 atezolizumab vs 143 docetaxel)
  ORR: 15% vs 15%
[1]; POPLAR, tTMB quantile ≥25%
  ORR: 10%
[1]; POPLAR, tTMB quantile ≥50% (median)
  ORR: 4%
[1]; POPLAR, tTMB quantile ≥75%
  ORR: 8%
[1]; docetaxel arm, 2L+ NSCLC, randomized setting
  association of tissue TMB with efficacy: not associated with the efficacy
[2]; [3]
  Median OS: 9.8 months
  Median PFS: 3.81 months
[2]; ITT (n = 425 per arm)
  Median OS: 9.6 months
  Median PFS: 4.0 months
[2]; [4]
  Median OS: 10.8 months
  Median PFS: 4.1 months
[2]; [5]
  Median OS: 10.1 months
  Median PFS: 4.0 months
[2]; [6]
  Median OS: 9.7 months
  Median PFS: 3.6 months
[2]; [7]
  Median OS: 9.7 months
  Median PFS: 3.5 months
